Measurements taken from ChEMBL document CHEMBL1125955, “Synthesis of new disoxaril analogues with potent and selective anti-human rhinovirus 14 activity” (1991).
≈ marks a conversion by molar mass, not a printed value.

Columns and labels:
HeLa [1] = assay: Maximum testable level (antiviral activity) was evaluated in HeLa cells against human rhino virus; assay type: functional
Vero [2] = assay: Maximum testable level was evaluated in Vero cells that causes no apparent effects on cell monolayers.; assay type: functional, Chlorocebus sabaeus
Vero [3] = assay: Minimum inhibitory concentration (antiviral activity) was screened in Vero cells against Coxsackie B1 (Coxs); assay type: functional; conditions: Chlorocebus sabaeus
Vero [4] = assay: Minimum inhibitory concentration (antiviral activity) was screened in Vero cells against herpes simplex virus type 1 (HSV-1); assay type: functional; conditions: Chlorocebus sabaeus
Vero [5] = assay: Minimum inhibitory concentration (antiviral activity) was screened in Vero cells against polio type 1 (Sabin strain, Sb-1); assay type: functional; conditions: Chlorocebus sabaeus
HeLa [6] = assay: Minimum inhibitory concentration (antiviral activity) was evaluated n HeLa cells against human rhino virus; assay type: functional
Vero [7] = assay: Minimum inhibitory concentration (antiviral activity) was screened in Vero cells against Vesicular Stomatitis virus (VSV); assay type: functional; conditions: Chlorocebus sabaeus
Vero [8] = assay: Minimum inhibitory concentration (antiviral activity) was screened in Vero cells against vaccinia virus (VV); assay type: functional; conditions: Chlorocebus sabaeus
[9] = Selectivity index was the ratio of maximum testable level to that of minimum inhibitory concentration in human rhino virus; assay type: functional
[10] = Selectivity index was determined as ratio of maximum testable level to that of minimum inhibitory concentration; assay type: functional

SMILES | MTL (HeLa [1]) | MTL (Vero [2]) | MIC (Vero [3]) | MIC (Vero [4]) | MIC (Vero [5]) | MIC (HeLa [6]) | MIC (Vero [7]) | MIC (Vero [8]) | Selectivity index [9] | Selectivity index [10]
O=C(O)c1ccc(OCCCCC(=O)c2ccc(Cl)s2)cc1 | >590 µM | >170 µM | > 170 µM | > 170 µM | 30 µM (≈ 10.2 µg/mL) | > 50 µM |  |  |  | 
CCOC(=O)c1ccc(OCCCCC(=O)c2cc(C=O)n(C)c2)cc1 | >20 µM | 55 µM |  | > 55 µM | 5 µM (≈ 1.79 µg/mL) | 1.4 µM (≈ 0.5 µg/mL) |  |  |  | 
O=C(CCCCOc1ccc(C2=NCCO2)cc1)c1ccc[nH]1 | >640 µM | >175 µM | > 175 µM | > 175 µM | 60 µM (≈ 18.7 µg/mL) | 7.5 µM (≈ 2.34 µg/mL) |  |  |  | 
CCOC(=O)c1ccc(OCCCCC(=O)c2ccc(C)o2)cc1 | 65 µM | >120 µM | 60 µM (≈ 19.8 µg/mL) | 75 µM (≈ 24.8 µg/mL) | 15 µM (≈ 4.96 µg/mL) | 2.4 µM (≈ 0.793 µg/mL) | > 120 µM | 30 µM (≈ 9.91 µg/mL) |  | 
CCOC(=O)c1ccc(OCCCCC(=O)c2ccc(Cl)s2)cc1 | >545 µM | >190 µM | > 190 µM | > 190 µM | 80 µM (≈ 29.3 µg/mL) | 0.4 µM (≈ 0.147 µg/mL) |  |  | >1362 | 
Cn1cc(C(=O)CCCCOc2ccc(C(=O)O)cc2)cc1C=O | >610 µM | 380 µM | > 380 µM | > 380 µM | 380 µM (≈ 125 µg/mL) | > 50 µM |  |  |  | 
Cn1cc(C(=O)CCCCOc2ccc(C3=NCCO3)cc2)cc1C=O | >565 µM | >280 µM | > 280 µM | > 280 µM |  | 20 µM (≈ 7.09 µg/mL) |  |  |  | 
O=C(CCCCOc1ccc(C2=NCCO2)cc1)c1ccc(Cl)s1 | >550 µM | >275 µM | > 275 µM | > 275 µM | 200 µM (≈ 72.8 µg/mL) | 0.1 µM (≈ 0.0364 µg/mL) |  |  |  | > 5500
O=C(O)c1ccc(OCCCCCc2ccc(Cl)s2)cc1 | 20 µM | 60 µM | > 60 µM | > 60 µM | 20 µM (≈ 6.5 µg/mL) | > 20 µM |  |  |  | 
Clc1ccc(CCCCCOc2ccc(C3=NCCO3)cc2)s1 | >60 µM | 30 µM | > 30 µM | > 30 µM | 25 µM (≈ 8.75 µg/mL) | 2.8 µM (≈ 0.98 µg/mL) |  |  |  | 
Cn1cccc1C(=O)CCCCOc1ccc(C2=NCCO2)cc1 | >610 µM | >300 µM | > 300 µM | > 300 µM | 300 µM (≈ 97.9 µg/mL) | 1.5 µM (≈ 0.49 µg/mL) |  |  |  | > 406
Cc1cc(CCCCCCCOc2ccc(C3=NCCO3)cc2)on1 [DISOXARIL] | >18 µM |  |  |  |  | 0.4 µM (≈ 0.137 µg/mL) |  |  | 45 | 
